Consider one compound from patent US20120040920A1, “OLIGOSACCHARIDE ALDONIC ACIDS AND THEIR TOPICAL USE” (priority 1999, published 2012).

Structures are written as SMILES.

Experiment [1] can be described thus: antioxidant property, banana peel test method. The settings on record: for colour of banana peels: 1×2 cm peels in 5 ml 0.1 M solution, room temperature. From the text: (§1) An antioxidant may be defined as a substance capable of preventing or inhibiting oxidation. […] The antioxidant property is readily determined by using any one of the following test methods: prevention or retardation of air oxidation of (a) anthralin, (b) hydroquinone, or (c) banana peel. A freshly prepared anthralin solution or cream is bright yellow, and an air oxidized one is brownish or black. A hydroquinone solution or cream is colorless or white color, and an air oxidized one is brownish or black. A freshly peeled banana peel is light yellow in color and an oxidized one ranges in color from tan, dark tan, brown to brownish black.
For example, in control experiments, fresh banana peels cut into sizes of 1×2 cm in 50 mm plastic petri dishes containing 5 ml water at neutral or acidic pH changed in color from white-yellowish to tan within 6 hours at room temperature, and changed to dark tan color during the next period of 24 to 72 hours.
Antioxidant property of an oligosaccharide aldonic acid may also be determined by utilizing banana peel test method as follows.
A fresh ripe banana peel cut into sizes of 2×2 cm has the outer layer light yellow in color. These freshly cut banana peels after exposed to air or immersed in an aqueous solution without an antioxidant in 50 mm plastic petri dishes rapidly changed in color from yellowish to tan within 3 hours, dark tan within 24 hours and brown black after 72 hours. A test substance including a positive control such as vitamin C, citric acid or N-acetylcysteine was prepared as 0.1 M concentration, and each test dish contained 5 ml test solution. Freshly cut banana peels 2×2 cm in sizes were immersed in 5 ml test solutions including known antioxidants and vehicle controls with pH at 7.0 and 4.0. […] The same results were also found for the known antioxidant substances; vitamin C, citric acid and N-acetylcysteine.

For experiment [2], the system named is dry vaginal mucosa. Description: topical treatment of dry vaginal mucosa. To be noted: 5% in molecular complex with 0.5% L-arginine, oil-in-water cream pH 3.1, twice daily, one week, person. In kind it is in vivo, human. As to the method:
Lactobionic acid 50% aqueous solution 10 g was uniformly mixed with an oil-in-water base 80 g, and the cream thus obtained had pH 2.5. L-Arginine 5% solution 10 g prepared from 8 parts water and 2 parts propylene glycol by volume was added to form molecular complex of amphoteric system as shown by the increase of pH to 3.1. The composition thus formulated contained 5% lactobionic acid in molecular complex with 0.5% L-arginine.
A subject, having dry vaginal mucosa topically applied the above bionic acid cream twice daily to the affected areas of the mucosa.

Experiment [3] concerns linear wounds 1 cm in length and 0.5 mm in depth. The experiment in a line: healing of linear needle wounds on forearm. It counts as in vivo, human. The settings on record: 2% in distilled water. The source says: A sterile 22-gauge needle was held in the jaws of a surgical needle holder, and two linear wounds 1 cm in length and 0.5 mm in depth were made on alcohol-swabbed left forearm of a healthy subject. The wounds were swabbed dry with cotton balls. A control solution containing 0.9% sodium chloride in distilled water was applied to one wound, and a test solution containing 2% lactobionic acid in distilled water was applied to the other wound. Both wounds were covered with 3M Tegaderm tapes for five days. […] The erythema disappeared from both skin sites at the end of nine days.

The subject of experiment [4] is skin fissures (open cuts). The experiment in a line: topical treatment of skin fissures at finger tips. It counts as in vivo, human. To be noted: 10% oil-in-water cream twice daily, person. As to the method: A subject, having two skin fissures (open cuts) 2-3 mm long at the finger tips, extending from the hyponychia, topically applied twice daily lactobionic acid 10% oil-in-water cream to one fissure for one week. The other fissure was treated with a vehicle control.

Experiment [5] is described as follows: antioxidant property, anthralin test method. It counts as physicochemical.
Source text: as §1
Antioxidant property of an oligosaccharide aldonic acid may be determined by utilizing anthralin test method as follows.
Anthralin also known as dithranol is a yellowish powder, and a composition containing anthralin without a suitable antioxidant is chemically unstable even at room temperature. For example, anthralin 0.05% in an oil-in-water cream changed in color from yellow to gray within 24 hours at room temperature, and the cream became brownish within 48 hours. Under anhydrous condition, anthralin 0.05% ointment prepared from white petrolatum 2 parts and mineral oil 1 part by weight changed in color from bright yellow to grayish yellow within 24 hours, and the ointment became brownish after 12 days at room temperature.
Based on the above observations, an oil-in-water cream containing 0.4% anthralin with or without a known antioxidant was used as a positive or vehicle control.

Experiment [6] deals with contact dermatitis or erythema. Description: topical treatment of facial erythema caused by glycolic acid cream. To be noted: 5% partially neutralized cream, three applications over 24 hour period, person; control side persisted. It counts as in vivo, human. From the text:
A subject, developed contact dermatitis or erythema on their face after topical applications of 20% unneutralized glycolic acid cream. They applied 5% partially neutralized lactobionic acid cream on the left side of their face and a control cream on the right side of their face.

In experiment [7] the test system is chronic gum disease of bleeding. The experiment in a line: oral gurgling treatment of chronic gum disease. To be noted: 5% in molecular complex with 1% L-arginine, pH 3.3, gurgling twice daily, one week, person. In kind it is in vivo, human. As to the method: Lactobionic acid 50% aqueous solution 10 g was diluted with 60 ml water and 10 ml propylene glycol, and the solution had pH 2.1. L-Arginine 5% solution 20 g prepared from 8 parts water and 2 parts propylene glycol by volume was added to form molecular complex of amphoteric system as shown by the increase of pH to 3.3. The composition thus formulated contained 5% lactobionic acid in molecular complex with 1% L-arginine.
A subject, having chronic gum disease of bleeding during the tooth brushing, used the above bionic acid complex composition twice daily as a gurgling solution with at least one minute of contact time in oral cavity. No food or drink was taken for the next 30 minutes.

Consider `O=C(O)[C@H](O)[C@@H](O)[C@H](O[C@@H]1O[C@H](CO)[C@H](O)[C@H](O)[C@H]1O)[C@H](O)CO` [lactobionic acid], for which the “colour of banana peels” value is “remained white-yellowish” in experiment [1] (24 hours) and “changed in color to tan” in experiment [1] (after 72 hours). Further, in experiment [1] (2×2 cm peels in 5 ml 0.1 M test solution, water control tan within 4 hours), the “colour change of banana peels” value is recorded as “did not change color”. The “dryness of vaginal mucosa” value in experiment [2] is reported as “dryness of vaginal mucosa disappeared completely”. For the same compound, the wound healing result in experiment [3] (covered five days, end of one week, saline control not epithelialized) is “healed with re-epithelialization”. For the same compound, in experiment [3] (same at control site), the “time to disappearance of erythema” value is given as “nine”. The “healing of skin fissure” value in experiment [4] (after a week, vehicle site unhealed) is given as “skin fissure healed completely”. For the same compound, the “pain of skin fissure” value in experiment [4] is “pain disappeared after a few days”. Also, the antioxidant grade result in experiment [5] (anthralin and hydroquinone test methods) is “moderate antioxidant”. Also, the “colour change of anthralin cream” value in experiment [5] (oil-in-water cream, 0.4% anthralin, test substance 0.1 M, 24 hours) is listed as “did not change the color”. In addition, the “erythema of facial skin” value in experiment [6] is “improved substantially and the erythema became less noticeable”. The “gum bleeding during tooth brushing” value in experiment [7] is “gum bleeding stopped or became less noticeable”.
